These results are taken from patent US9708314B2, “Heterocyclic amide compound” (NISSAN CHEMICAL INDUSTRIES, LTD., priority 2013, dated 2017).

Holding throughout (format): in vivo
Data set [1] relates to Echinochloa oryzacola Vasing. The data set is described as follows: Test Example 1: herbicidal activity, application before weed generation in submerged conditions. The following applies: Application herbicide amount 320 g/ha; Seventeenth Table. The essentials:
(§1)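 Water-diluted emulsion formulation is applied onto flood water (4 cm deep) covering alluvial soil on the day weed seeds are sown, after transplanting 2.5 leaf stage rice. Rates are expressed per hectare. Injury or control is graded 0–5 three weeks later.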

The test system of the next data set is Monochoria vaginalis. Described as above. The following applies: Application herbicide amount 320 g/ha; Seventeenth Table. The essentials: as §1
The subject of a further data set is Scirpus juncoides. Described as above. Particulars: Application herbicide amount 320 g/ha; Seventeenth Table. The essentials: as §1
For the next data set, the system named is Abutilon theophrasti. The data set is described as follows: Test Example 4: herbicidal effect by application to foliage (diluvial soil, plastic box). Particulars: application to foliage, 320 g/ha. The essentials:
(§2)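 Greenhouse plants (25° C. to 30° C., 14 d, diluvial soil) receive a foliar spray of water-diluted emulsifiable formulation at defined g/ha. Grading after 3 weeks uses a six-step herbicidal-ratio scale, with 4 covering 70% to <90% and 1 covering 5% to <20%.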

In another data set the test system is Alopecurus myosuroides. Described as above. The following applies: application to foliage, 320 g/ha. The essentials: as §2
The subject of the next data set is Amaranthus retroflexus. The description is as above. Particulars: application to foliage, 320 g/ha. The essentials:
as §2

The test system of a further data set is Apera spica-venti. Described as above. The following applies: application to foliage, 320 g/ha. The essentials:
as §2

In another data set the test system is Avena fatua. The description is as above. Particulars: application to foliage, 320 g/ha. The essentials: as §2
The next data set has as its system Chenopodium album. Described as above. The following applies: application to foliage, 320 g/ha. The essentials:
as §2

The next data set concerns Digitaria ciliaris. The data set is described as above. The following applies: application to foliage, 320 g/ha. The essentials:
as §2

Data set [2] deals with Echinochloa crus-galli var. crus-galli. Described as above. Particulars: application to foliage, 320 g/ha. The essentials:
as §2

The next data set has as its system Galium spurium. Described as above. Particulars: application to foliage, 320 g/ha. The essentials:
as §2

The test system of another data set is Lolium multiflorum Lam. The data set is described as above. The following applies: application to foliage, 320 g/ha. The essentials: as §2
The test system of another data set is Setaria viridis. The data set is described as above. The following applies: application to foliage, 320 g/ha. The essentials: as §2
The subject of another data set is Stellaria media. The description is as above. The following applies: application to foliage, 320 g/ha. The essentials:
as §2

The test system of a further data set is Veronica persica. Described as above. The following applies: application to foliage, 320 g/ha. The essentials:
as §2

Data set [3] relates to Beta vulgaris ssp. vulgaris. The data set is described as follows: Test Example 4: effect on crop by application to foliage (diluvial soil, plastic box). The following applies: application to foliage, 320 g/ha. The essentials:
as §2

The next data set deals with Brassica campestris L. The description is as above. The following applies: application to foliage, 320 g/ha. The essentials: as §2
Another data set concerns Glycine max. The description is as above. The following applies: application to foliage, 320 g/ha. The essentials:
as §2

The subject of the next data set is Triticum aestivum. Described as above. The following applies: application to foliage, 320 g/ha. The essentials: as §2
The subject of data set [4] is directly sowed Oryza sativa. The data set is described as above. Particulars: application to foliage, 320 g/ha. The essentials:
as §2

The subject of the next data set is Zea mays. The description is as above. Particulars: application to foliage, 320 g/ha. The essentials:
as §2

As for `Cn1nnnc1NC(=O)c1ccc(C(F)(F)F)n2c(SCC#N)nnc12` [2-086], the “A: Echinochloa oryzicola Vasing. (herbicidal effect grade)” value in [1] was 3 (Herbicidal ratio of 40% or more and less than 70%). In addition, in the data set on Monochoria vaginalis, the “C: Monochoria vaginalis (herbicidal effect grade)” value (“C: Monochoria vaginalis” below) is 3 (Herbicidal ratio of 40% or more and less than 70%). Moreover, the “B: Scirpus juncoides (herbicidal effect grade)” value (shortened to “B: Scirpus juncoides”) with Scirpus juncoides is 2 (Herbicidal ratio of 20% or more and less than 40%). For the same compound, the “herbicidal effect, M (Abutilon theophrasti)” value (from here on “herbicidal effect, M”) in the data set with Abutilon theophrasti was 5 (Herbicidal ratio of 90% or more (almost completely withered)). Moreover, the “herbicidal effect, J (Alopecurus myosuroides)” value (shortened to “herbicidal effect, J”) in the data set on Alopecurus myosuroides is 1 (Herbicidal ratio of 5% or more and less than 20%). In addition, the “herbicidal effect, N (Amaranthus retroflexus)” value (“herbicidal effect, N” below) in the data set with Amaranthus retroflexus is 5 (Herbicidal ratio of 90% or more (almost completely withered)). For the same compound, the “herbicidal effect, L (Apera spica-venti.)” value (from here on “herbicidal effect, L”) in the data set with Apera spica-venti. was 4 (Herbicidal ratio of 70% or more and less than 90%). Also, the “herbicidal effect, I (Avena fatua)” value in the data set on Avena fatua is 3 (Herbicidal ratio of 40% or more and less than 70%). In the data set with Chenopodium album, the “herbicidal effect, O (Chenopodium album)” value is 5 (Herbicidal ratio of 90% or more (almost completely withered)). In the data set with Digitaria ciliaris, the “herbicidal effect, F (Digitaria ciliaris)” value (shortened to “herbicidal effect, F”) is given as 5 (Herbicidal ratio of 90% or more (almost completely withered)). The “herbicidal effect, H (Echinochloa crus-galli var. crus-galli)” value (“herbicidal effect, H” below) in data set [2] is recorded as 5 (Herbicidal ratio of 90% or more (almost completely withered)). In the data set with Galium spurium, the “herbicidal effect, Q (Galium spurium)” value is 4 (Herbicidal ratio of 70% or more and less than 90%). For the same compound, the “herbicidal effect, K (Lolium multiflorum Lam.)” value (from here on “herbicidal effect, K”) with Lolium multiflorum Lam. is 2 (Herbicidal ratio of 20% or more and less than 40%). In addition, the “herbicidal effect, G (Setaria viridis)” value in the data set with Setaria viridis is recorded as 5 (Herbicidal ratio of 90% or more (almost completely withered)). In the data set with Stellaria media, the “herbicidal effect, P (Stellaria media)” value is 4 (Herbicidal ratio of 70% or more and less than 90%). Also, the “herbicidal effect, R (Veronica persica)” value with Veronica persica is reported as 5 (Herbicidal ratio of 90% or more (almost completely withered)). In addition, the “effect on crop, f (Beta vulgaris ssp. vulgaris)” value (“effect on crop, f” for short) in data set [3] is reported as 5 (Herbicidal ratio of 90% or more (almost completely withered)). Further, the “effect on crop, g (Brassica campestris L.)” value (from here on “effect on crop, g”) in the data set with Brassica campestris L. is 3 (Herbicidal ratio of 40% or more and less than 70%). Besides, the “effect on crop, c (Glycine max)” value in the data set on Glycine max is recorded as 0 (Herbicidal ratio of 5% or less (almost no effect)). Besides, in the data set on Triticum aestivum, the “effect on crop, e (Triticum aestivum)” value was 2 (Herbicidal ratio of 20% or more and less than 40%). Besides, the “effect on crop, d (directly sowed Oryza sativa)” value (“effect on crop, d” below) in [4] was 4 (Herbicidal ratio of 70% or more and less than 90%).
Regarding `CCCn1nnnc1NC(=O)c1ccc(C(F)(F)F)n2c(C(C)C)nnc12` [2-090], the “A: Echinochloa oryzicola Vasing. (herbicidal effect grade)” value in data set [1] is 5 (Herbicidal ratio of 90% or more (almost completely withered)). Further, the “C: Monochoria vaginalis” value with Monochoria vaginalis is reported as 5 (Herbicidal ratio of 90% or more (almost completely withered)). Also, the “B: Scirpus juncoides” value with Scirpus juncoides is reported as 5 (Herbicidal ratio of 90% or more (almost completely withered)). Further, the “herbicidal effect, M” value in the data set with Abutilon theophrasti was 3 (Herbicidal ratio of 40% or more and less than 70%). Moreover, the “herbicidal effect, J” value with Alopecurus myosuroides was 3 (Herbicidal ratio of 40% or more and less than 70%). Besides, the “herbicidal effect, N” value in the data set on Amaranthus retroflexus was 4 (Herbicidal ratio of 70% or more and less than 90%). Besides, in the data set on Apera spica-venti., the “herbicidal effect, L” value was 4 (Herbicidal ratio of 70% or more and less than 90%). Further, the “herbicidal effect, I (Avena fatua)” value in the data set on Avena fatua was 4 (Herbicidal ratio of 70% or more and less than 90%). In addition, the “herbicidal effect, F” value in the data set with Digitaria ciliaris is 5 (Herbicidal ratio of 90% or more (almost completely withered)). The “herbicidal effect, H” value in data set [2] is listed as 5 (Herbicidal ratio of 90% or more (almost completely withered)). The “herbicidal effect, Q (Galium spurium)” value with Galium spurium is 4 (Herbicidal ratio of 70% or more and less than 90%). In addition, the “herbicidal effect, K” value in the data set on Lolium multiflorum Lam. is 4 (Herbicidal ratio of 70% or more and less than 90%). Besides, the “herbicidal effect, G (Setaria viridis)” value in the data set with Setaria viridis was 4 (Herbicidal ratio of 70% or more and less than 90%). In addition, the “herbicidal effect, P (Stellaria media)” value with Stellaria media is given as 5 (Herbicidal ratio of 90% or more (almost completely withered)). The “herbicidal effect, R (Veronica persica)” value with Veronica persica was 3 (Herbicidal ratio of 40% or more and less than 70%). The “effect on crop, f” value in [3] was 5 (Herbicidal ratio of 90% or more (almost completely withered)). Also, the “effect on crop, g” value in the data set with Brassica campestris L. is 4 (Herbicidal ratio of 70% or more and less than 90%). Further, the “effect on crop, c (Glycine max)” value with Glycine max was 1 (Herbicidal ratio of 5% or more and less than 20%). In the data set with Triticum aestivum, the “effect on crop, e (Triticum aestivum)” value was 3 (Herbicidal ratio of 40% or more and less than 70%). In addition, in the data set with Zea mays, the “effect on crop, b (Zea mays)” value was 3 (Herbicidal ratio of 40% or more and less than 70%). For the same compound, the “effect on crop, d” value in [4] was 3 (Herbicidal ratio of 40% or more and less than 70%).
For the compound `CC(C)N(C)c1nnc2c(C(=O)Nc3nnnn3C)ccc(C(F)(F)F)n12` [2-082], the “A: Echinochloa oryzicola Vasing. (herbicidal effect grade)” value in data set [1] is recorded as 5 (Herbicidal ratio of 90% or more (almost completely withered)). For the same compound, the “C: Monochoria vaginalis” value with Monochoria vaginalis is reported as 5 (Herbicidal ratio of 90% or more (almost completely withered)). Moreover, in the data set with Scirpus juncoides, the “B: Scirpus juncoides” value was 5 (Herbicidal ratio of 90% or more (almost completely withered)). In the data set with Abutilon theophrasti, the “herbicidal effect, M” value is given as 5 (Herbicidal ratio of 90% or more (almost completely withered)). Further, in the data set with Alopecurus myosuroides, the “herbicidal effect, J” value is 4 (Herbicidal ratio of 70% or more and less than 90%). Also, the “herbicidal effect, N” value with Amaranthus retroflexus is reported as 5 (Herbicidal ratio of 90% or more (almost completely withered)). Further, the “herbicidal effect, L” value in the data set on Apera spica-venti. is 4 (Herbicidal ratio of 70% or more and less than 90%). Also, the “herbicidal effect, I (Avena fatua)” value with Avena fatua was 2 (Herbicidal ratio of 20% or more and less than 40%). For the same compound, the “herbicidal effect, O (Chenopodium album)” value in the data set with Chenopodium album is recorded as 5 (Herbicidal ratio of 90% or more (almost completely withered)). Further, the “herbicidal effect, F” value with Digitaria ciliaris was 5 (Herbicidal ratio of 90% or more (almost completely withered)). For the same compound, the “herbicidal effect, H” value in data set [2] is reported as 5 (Herbicidal ratio of 90% or more (almost completely withered)). Further, in the data set with Galium spurium, the “herbicidal effect, Q (Galium spurium)” value is 4 (Herbicidal ratio of 70% or more and less than 90%). In addition, in the data set with Lolium multiflorum Lam., the “herbicidal effect, K” value was 4 (Herbicidal ratio of 70% or more and less than 90%). Moreover, in the data set on Setaria viridis, the “herbicidal effect, G (Setaria viridis)” value was 5 (Herbicidal ratio of 90% or more (almost completely withered)). For the same compound, the “herbicidal effect, P (Stellaria media)” value with Stellaria media is on record as 5 (Herbicidal ratio of 90% or more (almost completely withered)). Also, the “herbicidal effect, R (Veronica persica)” value in the data set with Veronica persica was 4 (Herbicidal ratio of 70% or more and less than 90%). The “effect on crop, f” value in data set [3] is 5 (Herbicidal ratio of 90% or more (almost completely withered)). Besides, in the data set with Brassica campestris L., the “effect on crop, g” value was 5 (Herbicidal ratio of 90% or more (almost completely withered)). The “effect on crop, c (Glycine max)” value with Glycine max is 1 (Herbicidal ratio of 5% or more and less than 20%). In addition, in the data set with Triticum aestivum, the “effect on crop, e (Triticum aestivum)” value was 4 (Herbicidal ratio of 70% or more and less than 90%). Moreover, the “effect on crop, d” value in data set [4] is recorded as 5 (Herbicidal ratio of 90% or more (almost completely withered)).
